Like-named read-outs stand apart in the source and are kept apart here.
Experiments:
[1] = target: T1, recombinant human PAI-1 (Homo sapiens, UniProt P05121); assay: Test Example 2: Human PAI-1 Inhibitory Activity (pH 7.4 HEPES buffer, 10 minutes incubation with two-chain tPA); assay type: biochemical; set-up: purchased Molecular Innovations, Inc; conditions: read-out: Inhibition Rate of PAI-1 Activity (%)
Method: 0.1 M HEPES, 0.1 M NaCl. 1 mM EDTA. 0.1 % Polyethylene glycol 8,000 (Hampton Research Corporation),
2 mM Dimethyldecylphoshine oxide [Apo-10] (Fluka Corporation)

[2] = target: T1, recombinant human PAI-1; assay: Test Example 4: Human PAI-1 Inhibitory Activity (amount of PAI-1 bound to plate-coated one-chain tPA, ELISA); assay type: biochemical; set-up: purchased Molecular Innovations, Inc; conditions: human PAI-1 bound to tPA, read-out: Inhibition Rate of PAI-1 Activity (%); for inhibition at 0.3 µM: Compound Concentration 0.3µM; for inhibition at 1 µM: Compound Concentration 1µM; for inhibition at 3 µM: Compound Concentration 3µM
Method: 100 µl of tPA solution, where one-chain recombinant tPA (hereinafter reffered to as tPA; American diagnostica, inc.) had been diluted with Buffer A to acheive a concentration of 10 µg/ml, was added to each well of a 96-well plate (Nunc Maxisorp), and the plate was incubated for one night at 4 °C to be coated with tPA. Then, after suction of tPA solution from the 96-well plate, the plate was rinsed successively with Buffer A and Buffer B. To Buffer B, solutions of the compound according to the present invention dissolved with DMSO (final DMSO concentration: 0.2 %) and recombinant human PAI-1 (Molecular Innovations, Inc.) were added. The mixtures were blended so that the final concentrations would be 0.1 to 3.0 µM and 50 ng/ml respectively, and were incubated for 15 minutes on ice. These mixed solutions were added to the rinsed 96-well plate at 100 µl/well, and incubated for 60 minutes at room temperature. To prepare a calibration curve, PAI-1 solutions without the compound according to the present invention (solutions where the final concentrations being 100, 50, 25, 12.5, 6.25, 3.13, or 1.56 ng/ml PAI-1) were added at 100 µl/well, and the plate was incubated for 60 minutes at room temperature, as standard.
After incubation, the reaction mixture was removed by suction, and each well was rinsed with Wash Buffer. Next, anti-human PAI-1 monoclonal antibody (PROGEN Inc.) diluted with Buffer C to be 3.0 µg/ml was added to the 96-well plate at 100 µl/well, and the plate was incubated for 1 hour at room temperature. After rinsing each well with Wash Buffer, alkaline phosphatase-labeled goat anti-mouse IgG (H+L) (Jackson ImmunoResearch, Inc.) diluted with Buffer D to be 0.12 µg/ml was added at 100 µl/well, and the plate was incubated for 1 hour at room temperature. After rinsing each well with Wash Buffer, 1.0 mg/ml p-Nitrophenyl Phosphate (SIGMA) was added to the 96-well plate at 100 µl/well to start the reaction. After 30 to 60 minutes, 25 µl of 0.5 N NaOH was added to stop the reaction, and the absorbance was measured at 405 nm using a multiplate reader (GENios; TECAN G.M.B.H.).
Based on the calibration curve prepared from the standard wells, amounts of PAI-1 bound to tPA in the wells that had been treated with the compound according to the present invention were calculated, and the PAI-1 inhibition rates by the compounds according to the present invention were obtained by the following equation. [API-1InhibitionRate(%)] = [1-(amountofPAI-1boundtotPaonthewellbytreatmentwiththecompondaccordingtothepresentinvention)/(amountofPAI-1boundtotPAonthewellbytreatmentwithPAI-1solutionnotincledingthecompondaccordingtotheinvention(solution having the final concentration of 50 nb/ml PAI-1)] × 100 [formula] • <Composition of Buffer A> 0.1 M Tris-HCl, 150 mM NaCl, pH 7.7 • <Composition of Buffer B> 50 mM sodium phosphate, 0.1 M NaCl, 1 mM EDTA, pH 6.6 • <Composition of Buffer C> 50 mM sodium phosphate, 100 mM NaCl, pH 7.4 • <Composition of Buffer D> 0.01 M Tris-HCl, 0.25 M NaCl, pH 8.0 • <Compositon of Wash Buffer> 0.05 % Tween 20, 0.1 % BSA in Buffer A • <Composition of p-Nitrophenyl Phosphate solution> 1 M Diethanolamine 0.5 mM MgCl2, p-Nitrophenyl phosphate, pH 9.8

[3] = target: T2, recombinant rat PAI-1 (Rattus norvegicus, UniProt P20961); assay: biochemical; conditions: read-out: Inhibition Rate of PAI-1 Activity (%)
T2 sequence (P20961 24-402): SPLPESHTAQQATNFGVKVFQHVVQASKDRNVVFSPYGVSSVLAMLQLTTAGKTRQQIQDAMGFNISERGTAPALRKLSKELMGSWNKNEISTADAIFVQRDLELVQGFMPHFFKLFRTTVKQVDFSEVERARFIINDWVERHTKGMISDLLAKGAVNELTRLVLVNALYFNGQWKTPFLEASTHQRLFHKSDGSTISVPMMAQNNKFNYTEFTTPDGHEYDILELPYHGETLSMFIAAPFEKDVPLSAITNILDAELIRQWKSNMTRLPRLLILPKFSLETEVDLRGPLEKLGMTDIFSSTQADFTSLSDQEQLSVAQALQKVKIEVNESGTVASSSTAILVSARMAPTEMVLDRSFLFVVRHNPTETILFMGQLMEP

[4] = target: T1, recombinant human PAI-1; assay: biochemical
[5] = read-out: Inhibition Rate of PAI-1 Activity (%)
[6] = read-out: Inhibition Rate of PAI-1 Activity (%), Compound Concentration 5µM
[7] = read-out: Inhibition Rate of PAI-1 Activity (%), Compound Concentration 10µM
[8] = read-out: Inhibition Rate of PAI-1 Activity (%), Compound Concentration 25µM

T1 sequence (P05121 24-402): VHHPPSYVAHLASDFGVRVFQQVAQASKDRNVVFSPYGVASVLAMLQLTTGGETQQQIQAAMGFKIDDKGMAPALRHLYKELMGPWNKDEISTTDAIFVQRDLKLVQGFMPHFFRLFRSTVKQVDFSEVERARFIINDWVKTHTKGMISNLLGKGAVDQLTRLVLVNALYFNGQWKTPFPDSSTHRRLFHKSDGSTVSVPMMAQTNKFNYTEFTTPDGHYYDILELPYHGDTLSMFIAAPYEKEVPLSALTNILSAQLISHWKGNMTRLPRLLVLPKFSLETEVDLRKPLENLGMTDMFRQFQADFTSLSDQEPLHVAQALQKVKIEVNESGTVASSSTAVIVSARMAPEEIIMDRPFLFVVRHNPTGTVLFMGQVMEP

Compound	inhibition at 0.1 µM [1] [%]	inhibition at 0.3 µM [1] [%]	inhibition at 1 µM [1] [%]	inhibition at 3 µM [1] [%]	inhibition at 0.3 µM [2] [%]	inhibition at 1 µM [2] [%]	inhibition at 3 µM [2] [%]	inhibition at 0.3 µM [3] [%]	inhibition at 1 µM [3] [%]	inhibition at 3 µM [3] [%]	inhibition at 10 µM [3] [%]	inhibition at 5 µM [4, 5] [%]	inhibition at 10 µM [4, 5] [%]	inhibition at 25 µM [4, 5] [%]	inhibition at 5 µM [4, 6] [%]	inhibition at 10 µM [4, 7] [%]	inhibition at 25 µM [4, 8] [%]
CC(C)(C)c1ccc(Oc2cc(Oc3ccc(OC(F)(F)F)cc3)ccc2CCC(=O)O)cc1 [Compound 90]	4	6	22	97	2	9	70	0	0	77	90	42	83	96	–	–	–
CC(C)(C)c1ccc(Oc2ccc(Oc3ccc(OC(F)(F)F)cc3)cc2CCC(=O)O)cc1 [Compound 100]	0	2	29	93	7	37	79	0	7	70	> 99	64	91	98	–	–	–
O=C(O)CCc1cc(-c2ccc(OC(F)(F)F)cc2)ccc1OCCCCc1ccccc1 [Compound 102]	0	7	28	94	0	0	83	0	12	55	93	–	–	–	43	74	97
CC(C)(C)c1ccc(COc2ccc(-c3ccc(OC(F)(F)F)cc3)cc2OCC(=O)O)cc1 [Compound 105]	2	3	44	99	7	4	33	0	6	74	90	–	–	–	38	76	> 99
CC(C)(Oc1cc(-c2ccc(OC(F)(F)F)cc2)ccc1OCc1ccc(C(C)(C)C)cc1)C(=O)O [Compound 106]	0	8	39	97	0	7	17	0	16	85	> 99	–	–	–	50	85	93
CC(C)(C)c1ccc(Oc2cc(-c3ccc(OC(F)(F)F)cc3)ccc2OCC(=O)O)cc1 [Compound 112]	0	19	56	> 99	0	6	36	0	14	75	96	34	82	95	–	–	–
CC(C)(Oc1cccc(-c2ccc(OC(F)(F)F)cc2)c1OCc1ccc(C(C)(C)C)cc1)C(=O)O [Compound 118]	0	6	49	> 99	0	4	46	0	16	77	93	–	–	–	56	82	93
CC(C)(C)c1ccc(CN(C(=O)C(=O)O)c2cccc(-c3ccc(OC(F)(F)F)cc3)c2)cc1 [Compound 130]	0	2	18	84	1	3	15	1	16	50	> 99	–	–	–	82	96	–
CC(C)(C)c1ccc(CN(C(=O)C(=O)O)c2cc(-c3ccc(OC(F)(F)F)cc3)cc(C(F)(F)F)c2)cc1 [Compound 139]	0	3	30	97	6	10	32	0	22	85	88	–	–	–	25	59	66
CC(C)(C)c1ccc(CN(C(=O)C(=O)O)c2ccc(Oc3ccc(OC(F)(F)F)cc3)cc2C(F)(F)F)cc1 [Compound 174]	0	0	26	96	0	7	32	0	11	76	94	–	–	–	61	92	91

From patent EP2272817A1, “PAI-1 INHIBITOR” (Institute of Medicinal Molecular Design, Inc., priority 2008, dated 2009)
